From patent US12157746B2, “Tetrahydro-1H-pyrazino[2,1-a]isoindolylquinoline compounds for the treatment of autoimmune disease” (F. HOFFMANN-LA ROCHE AG, priority 2018, dated 2024) come the findings set out here.

The target in the experiment is T1, human TLR7 (Homo sapiens, UniProt Q9NYK1).
T1 sequence (Q9NYK1 27-1049): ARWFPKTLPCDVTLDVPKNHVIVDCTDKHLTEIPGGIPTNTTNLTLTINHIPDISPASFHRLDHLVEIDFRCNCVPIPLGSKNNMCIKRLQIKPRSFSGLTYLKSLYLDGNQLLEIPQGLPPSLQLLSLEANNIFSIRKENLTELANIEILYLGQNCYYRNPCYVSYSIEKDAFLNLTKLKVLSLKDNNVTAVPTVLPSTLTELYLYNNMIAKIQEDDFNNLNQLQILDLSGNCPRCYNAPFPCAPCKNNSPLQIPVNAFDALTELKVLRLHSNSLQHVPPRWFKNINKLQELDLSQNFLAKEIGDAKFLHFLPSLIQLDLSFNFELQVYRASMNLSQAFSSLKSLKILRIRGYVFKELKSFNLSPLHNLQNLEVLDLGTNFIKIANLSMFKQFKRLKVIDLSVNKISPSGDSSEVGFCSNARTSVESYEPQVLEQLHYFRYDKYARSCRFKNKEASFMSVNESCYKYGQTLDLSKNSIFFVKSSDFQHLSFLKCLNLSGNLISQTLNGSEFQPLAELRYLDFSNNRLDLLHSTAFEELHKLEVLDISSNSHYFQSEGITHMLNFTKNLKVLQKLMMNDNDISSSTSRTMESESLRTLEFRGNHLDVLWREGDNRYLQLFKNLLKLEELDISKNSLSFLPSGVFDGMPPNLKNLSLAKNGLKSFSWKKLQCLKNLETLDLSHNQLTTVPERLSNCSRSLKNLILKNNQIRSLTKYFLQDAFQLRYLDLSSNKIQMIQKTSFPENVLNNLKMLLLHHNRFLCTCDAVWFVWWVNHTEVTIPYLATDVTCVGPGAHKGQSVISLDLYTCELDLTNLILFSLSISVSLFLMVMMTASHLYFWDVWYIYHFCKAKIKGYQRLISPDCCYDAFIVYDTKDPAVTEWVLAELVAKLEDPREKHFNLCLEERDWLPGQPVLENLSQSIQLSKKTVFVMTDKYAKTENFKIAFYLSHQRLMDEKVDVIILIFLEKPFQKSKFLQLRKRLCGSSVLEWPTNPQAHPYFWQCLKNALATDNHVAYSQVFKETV
Briefly: HEK293-Blue-hTLR-7 cells assay. The conditions noted are these: HEK293-Blue-hTLR7 cells, R848 stimulation, 20 hrs, SEAP reporter; read-out: HEK/hTLR7 IC50. The format is cell-based. The gist of the method: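 HEK293-Blue-hTLR7 cells (NF-κB/AP-1-driven SEAP reporter) incubated with serially diluted compound (1% DMSO final) and R848 agonist for 20 h at 37 °C. Supernatant SEAP measured with QUANTI-Blue (2 h, 37 °C) by absorbance at 620-655 nm; antagonism seen as reduced reporter.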
On to `C[C@@H]1CN(c2ccc(C#N)n3ncc(F)c23)C[C@@H]2c3ccc(N4C[C@H](N)[C@@](C)(O)C4)cc3CN12` [Example 112, 4-[(4R,10bS)-8-[(3S,4S)-4-amino-3-hydroxy-3-methyl-pyrrolidin-1-yl]-4-methyl-3,4,6,10b-tetrahydro-1H-pyrazino[2,1-a]isoindol-2-yl]-3-fluoro-pyrazolo[1,5-a]pyridine-7-carbonitrile], for which the IC50 was 11.4 nM.

`C[C@@H]1CN(c2ccc(C#N)c3ncccc23)C[C@@H]2c3ccc(NCCN(C)C)cc3CN12` [Example 26, 5-[(4R,10bS)-8-[2-(dimethylamino)ethylamino]-4-methyl-3,4,6,10b-tetrahydro-1H-pyrazino[2,1-a]isoindol-2-yl]quinoline-8-carbonitrile]: the IC50 amounted to 5.8 nM. The figure for `C[C@@H]1CN(c2ccc(C#N)c3ncccc23)C[C@@H]2c3ccc(N4CCOC[C@@H](N)C4)cc3CN12` [Example 54B, 5-[(4R,10bS)-8-[(6S)-6-amino-1,4-oxazepan-4-yl]-4-methyl-3,4,6,10b-tetrahydro-1H-pyrazino[2,1-a]isoindol-2-yl]quinoline-8-carbonitrile] is 5.7 nM. In the case of `CO[C@@H]1CNC[C@H]1Nc1ccc2c(c1)CN1[C@H](C)CN(c3ccc(C#N)c4ncccc34)C[C@H]21` [Example 34, 5-[(4R,10bS)-8-[[(3R,4R)-4-methoxypyrrolidin-3-yl]amino]-4-methyl-3,4,6,10b-tetrahydro-1H-pyrazino[2,1-a]isoindol-2-yl]quinoline-8-carbonitrile] it was 7.4 nM; in that of `C[C@@H]1CN(c2ccc(C#N)c3ncccc23)C[C@@H]2c3ccc(N4CC5(CCN5)C4)cc3CN12` [Example 37, 5-[(4R,10bS)-8-(1,6-diazaspiro[3.3]heptan-6-yl)-4-methyl-3,4,6,10b-tetrahydro-1H-pyrazino[2,1-a]isoindol-2-yl]quinoline-8-carbonitrile], under 3.2 nM; in that of `CO[C@H]1CN(c2ccc3c(c2)CN2[C@H](C)CN(c4ccc(C#N)c5ncccc45)C[C@H]32)C[C@@H]1N` (relative stereo) [Example 16, 5-[(4R,10bS)-8-[trans-3-amino-4-methoxy-pyrrolidin-1-yl]-4-methyl-3,4,6,10b-tetrahydro-1H-pyrazino[2,1-a]isoindol-2-yl]quinoline-8-carbonitrile], 6.9 nM. `CO[C@@H]1CN(c2ccc3c(c2)CN2[C@H](C)CN(c4ccc(C#N)n5nccc45)C[C@H]32)CC[C@@H]1N` [Example 105, 4-[(4R,10bS)-8-[(3R,4S)-4-amino-3-methoxy-1-piperidyl]-4-methyl-3,4,6,10b-tetrahydro-1H-pyrazino[2,1-a]isoindol-2-yl]pyrazolo[1,5-a]pyridine-7-carbonitrile]: the IC50 was 4.9 nM. In the case of `COC12CNCC1CN(c1ccc3c(c1)CN1[C@H](C)CN(c4ccc(C#N)c5ncccc45)C[C@H]31)C2` (stereo partly drawn) [Example 41, 5-[(4R,10bS)-8-(3a-methoxy-1,2,3,4,6,6a-hexahydropyrrolo[3,4-c]pyrrol-5-yl)-4-methyl-3,4,6,10b-tetrahydro-1H-pyrazino[2,1-a]isoindol-2-yl]quinoline-8-carbonitrile] it was under 3.2 nM; in that of `C[C@@H]1CN(c2ccc(C#N)c3ncccc23)C[C@@H]2c3ccc(N4C[C@H](N)[C@@H](F)C4)cc3CN12` [Example 49, 5-[(4R,10bS)-8-[(3S,4S)-3-amino-4-fluoro-pyrrolidin-1-yl]-4-methyl-3,4,6,10b-tetrahydro-1H-pyrazino[2,1-a]isoindol-2-yl]quinoline-8-carbonitrile], 4.5 nM.
